From US12129237B2, “Substituted diaminocarboxamide and diaminocarbonitrile pyrimidines, compositions thereof, and methods of treatment therewith” (SIGNAL PHARMACEUTICALS, LLC, priority 2011, dated 2024)

These compounds were tested against T1, JNK1 (Homo sapiens, UniProt P45983) (assay: JNK1 biochemical assays (one or more of: time resolved fluorescence, Z'-LYTE Cascade, radioactive)). Conditions: Table 2; JNK1 IC50 activity level; read-out: Act. Level.
T1 construct: purchased Carna Biosciences
T1 sequence (P45983 whole entry): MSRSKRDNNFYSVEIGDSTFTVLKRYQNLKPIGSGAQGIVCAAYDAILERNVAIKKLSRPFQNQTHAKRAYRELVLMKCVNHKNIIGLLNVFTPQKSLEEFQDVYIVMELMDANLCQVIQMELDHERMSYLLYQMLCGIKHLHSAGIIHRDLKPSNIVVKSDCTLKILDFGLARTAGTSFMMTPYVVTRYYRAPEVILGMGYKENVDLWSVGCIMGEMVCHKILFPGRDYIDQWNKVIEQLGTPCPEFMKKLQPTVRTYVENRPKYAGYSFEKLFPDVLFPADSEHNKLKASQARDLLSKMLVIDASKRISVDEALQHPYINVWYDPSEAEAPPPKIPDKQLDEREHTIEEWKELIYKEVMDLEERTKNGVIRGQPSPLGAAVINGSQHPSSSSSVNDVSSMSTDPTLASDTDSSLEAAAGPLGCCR

Structure (SMILES)	IC50 [nM]
CC1(C)OCC(CNc2ncc(C(N)=O)c(Nc3ccccc3)n2)O1 (centres unmarked) [Example B-58, 2-((2,2-dimethyl-1,3-dioxolan-4-yl)methylamino)-4-(phenylamino)pyrimidine-5-carboxamide]	200 to 800
CN1CCCC1CCNc1ncc(C(N)=O)c(Nc2ccccc2)n1 (centres unmarked) [Example B-62, 2-(2-(1-methylpyrrolidin-2-yl)ethylamino)-4-(phenylamino)pyrimidine-5-carboxamide]	1000 to 10000
NC(=O)c1cnc(N[C@@H]2CCCc3ccccc32)nc1N[C@@H]1CCC[C@H](O)C1 [Example B-74, 4-((1R,3S)-3-hydroxycyclohexylamino)-2-((R)-1,2,3,4-tetrahydronaphthalen-1-ylamino)pyrimidine-5-carboxamid]	< 200
NC(=O)c1cnc(N[C@H]2CCCc3ccccc32)nc1N[C@@H]1CCC[C@H](O)C1 [Example B-75, 4-((1R,3S)-3-hydroxycyclohexylamino)-2-((S)-1,2,3,4-tetrahydronaphthalen-1-ylamino)pyrimidine-5-carboxamid]	< 200
NC(=O)c1cnc(N[C@@H]2CCc3ncccc3C2)nc1N[C@@H]1CCC[C@H](O)C1 [Example B-76, 4-((1R,3S)-3-hydroxycyclohexylamino)-2-((R)-5,6,7,8-tetrahydroquinolin-6-ylamino)pyrimidine-5-carboxamid]	< 200
NC(=O)c1cnc(N[C@H]2CCc3ncccc3C2)nc1N[C@@H]1CCC[C@H](O)C1 [Example B-77, 4-((1R,3S)-3-hydroxycyclohexylamino)-2-((S)-5,6,7,8-tetrahydroquinolin-6-ylamino)pyrimidine-5-carboxamid]	< 200
NC(=O)c1cnc(N[C@H]2CCOc3ccccc32)nc1N[C@@H]1CCC[C@H](O)C1 [Example B-78, 2-((S)-chroman-4-ylamino)-4-((1R,3S)-3-hydroxycyclohexylamino)pyrimidine-5-carboxamide]	800 to 1000
NC(=O)c1cnc(N[C@@H]2CCOc3ccccc32)nc1N[C@@H]1CCC[C@H](O)C1 [Example B-79, 2-((R)-chroman-4-ylamino)-4-((1R,3S)-3-hydroxycyclohexylamino)pyrimidine-5-carboxamide]	< 200
CC(C)Nc1nc(N[C@H]2CCc3ncccc3C2)ncc1C(N)=O [Example B-80, (S)-4-(isopropylamino)-2-(5,6,7,8-tetrahydroquinolin-6-ylamino)pyrimidine-5-carboxamide]	< 200
CC(C)Nc1nc(N[C@@H]2CCc3ncccc3C2)ncc1C(N)=O [Example B-81, (R)-4-(isopropylamino)-2-(5,6,7,8-tetrahydroquinolin-6-ylamino)pyrimidine-5-carboxamide]	200 to 800
CC(C)Nc1nc(N[C@@H]2CCc3ccccc3C2)ncc1C(N)=O [Example B-83, (R)-4-(isopropylamino)-2-(1,2,3,4-tetrahydronaphthalen-2-ylamino)pyrimidine-5-carboxamide]	< 200
NC(=O)c1cnc(N[C@@H]2CCc3ccccc3C2)nc1N[C@@H]1CCC[C@H](O)C1 [Example B-84, 4-((1R,3S)-3-hydroxycyclohexylamino)-2-((R)-1,2,3,4-tetrahydronaphthalen-2-ylamino)pyrimidine-5-carboxamide]	< 200
NC(=O)c1cnc(N[C@H]2CCc3ccccc3C2)nc1N[C@@H]1CCC[C@H](O)C1 [Example B-85, 4-((1R,3)S-3-hydroxycyclohexylamino)-2-((S)-1,2,3,4-tetrahydronaphthalen-2-ylamino)pyrimidine-5-carboxamide]	800 to 1000
N#Cc1cnc(NC2CCCCC2)nc1Nc1ccccc1 [Example B-86, 2-(cyclohexylamino)-4-(phenylamino)pyrimidine-5-carbonitrile]	1000 to 10000

Further lines, results first:

IC50 [nM]	Structure (SMILES)
800 to 1000	CCOc1ccccc1CNc1ncc(C(N)=O)c(Nc2ccccc2)n1 [Example B-54, 2-(2-ethoxybenzylamino)-4-(phenylamino)pyrimidine-5-carboxamide]
200 to 800	COc1cccc(CNc2ncc(C(N)=O)c(Nc3ccccc3)n2)c1OC [Example B-55, 2-(2,3-dimethoxybenzylamino)-4-(phenylamino)pyrimidine-5-carboxamide]
200 to 800	CCC(Nc1ncc(C(N)=O)c(Nc2ccccc2)n1)c1ccccc1 (centres unmarked) [Example B-56, 4-(phenylamino)-2-(1-phenylpropylamino)pyrimidine-5-carboxamide]
200 to 800	NC(=O)c1cnc(NCc2ccc(F)cc2F)nc1Nc1ccccc1 [Example B-57, 2-(2,4-difluorobenzylamino)-4-(phenylamino)pyrimidine-5-carboxamide]
< 200	CCC(C)CNc1ncc(C(N)=O)c(Nc2ccccc2)n1 (centres unmarked) [Example B-59, 2-(2-methylbutylamino)-4-(phenylamino)pyrimidine-5-carboxamide]
200 to 800	COc1ccccc1CNc1ncc(C(N)=O)c(Nc2ccccc2)n1 [Example B-60, 2-(2-methoxybenzylamino)-4-(phenylamino)pyrimidine-5-carboxamide]
1000 to 10000	CN(C)CCNc1ncc(C(N)=O)c(Nc2ccccc2)n1 [Example B-61, 2-(2-(dimethylamino)ethylamino)-4-(phenylamino)pyrimidine-5-carboxamide]
200 to 800	NC(=O)c1cnc(NCCc2ccccn2)nc1Nc1ccccc1 [Example B-63, 4-(phenylamino)-2-(2-(pyridin-2-yl)ethylamino)pyrimidine-5-carboxamide]
200 to 800	NC(=O)c1cnc(NCC2CCCO2)nc1Nc1ccccc1 (centres unmarked) [Example B-64, 4-(phenylamino)-2-((tetrahydrofuran-2-yl)methylamino)pyrimidine-5-carboxamide]
1000 to 10000	NC(=O)c1cnc(NCc2ccco2)nc1Nc1ccccc1 [Example B-65, 2-(furan-2-ylmethylamino)-4-(phenylamino)pyrimidine-5-carboxamide]
200 to 800	COc1ccc(CCNc2ncc(C(N)=O)c(Nc3ccccc3)n2)cc1OC [Example B-66, 2-(3,4-dimethoxyphenethylamino)-4-(phenylamino)pyrimidine-5-carboxamide]
200 to 800	NC(=O)c1cnc(NCc2ccc(F)cc2)nc1Nc1ccccc1 [Example B-67, 2-(4-fluorobenzylamino)-4-(phenylamino)pyrimidine-5-carboxamide]
200 to 800	CCCNc1ncc(C(N)=O)c(Nc2ccccc2)n1 [Example B-68, 4-(phenylamino)-2-(propylamino)pyrimidine-5-carboxamide]
800 to 1000	COCCNc1ncc(C(N)=O)c(Nc2ccccc2)n1 [Example B-69, 2-(2-methoxyethylamino)-4-(phenylamino)pyrimidine-5-carboxamide]
200 to 800	NC(=O)c1cnc(NCc2ccc(F)c(F)c2)nc1Nc1ccccc1 [Example B-70, 2-(3,4-difluorobenzylamino)-4-(phenylamino)pyrimidine-5-carboxamide]
200 to 800	NC(=O)c1cnc(NCCc2ccccc2)nc1Nc1ccccc1 [Example B-71, 2-(phenethylamino)-4-(phenylamino)pyrimidine-5-carboxamide]
200 to 800	CC(CNc1ncc(C(N)=O)c(Nc2ccccc2)n1)c1ccccc1 (centres unmarked) [Example B-72, 4-(phenylamino)-2-(2-phenylpropylamino)pyrimidine-5-carboxamide]
800 to 1000	NC(=O)c1cnc(NCc2ccccc2)nc1Nc1ccccc1 [Example B-73, 2-(benzylamino)-4-(phenylamino)pyrimidine-5-carboxamide]
